Reference: ChEMBL document CHEMBL1201862, “PubChem BioAssay data set” (2004)
Counter-ions that a name gives are not always drawn. Calls of active or inactive are those of the source.

Experiments:
Phospholipase A2 = Phospholipase A2 (Homo sapiens, UniProt P04054); type: functional;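 also: confirmatory dose-response counterscreen on phospholipase A2, testing hits that came from an ultra-high-throughput screen for ATG4B inhibitors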
Cysteine protease ATG4B = target: T1, Cysteine protease ATG4B (Homo sapiens, UniProt Q9Y4P1); type: functional;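 also: Fluorescence-based dose-response confirmation assay measuring inhibition of ATG4B activity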
T1 sequence (Q9Y4P1 whole entry): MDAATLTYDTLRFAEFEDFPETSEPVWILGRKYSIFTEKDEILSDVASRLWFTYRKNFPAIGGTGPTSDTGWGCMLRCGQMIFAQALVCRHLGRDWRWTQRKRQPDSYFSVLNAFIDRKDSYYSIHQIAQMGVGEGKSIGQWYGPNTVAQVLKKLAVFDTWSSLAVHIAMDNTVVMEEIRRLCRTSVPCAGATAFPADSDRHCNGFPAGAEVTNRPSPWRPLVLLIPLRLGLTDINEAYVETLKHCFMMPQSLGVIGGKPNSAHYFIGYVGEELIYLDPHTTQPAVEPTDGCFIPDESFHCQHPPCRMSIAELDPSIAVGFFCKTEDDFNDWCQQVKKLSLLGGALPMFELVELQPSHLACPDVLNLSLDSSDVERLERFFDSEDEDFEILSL

[1] = cAMP pathway inhibition in counterscreen cell line – TR-FRET cAMP detection, counter-screen for MC4R biased antagonist project, dose response (AID 602305); type: functional, cell-based;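 also: U2OS cells stimulated with forskolin near its EC80 as the cAMP inducer; potency is for inhibition of forskolin-stimulated cAMP signaling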
Melanocortin receptor 4 = Melanocortin receptor 4 (Homo sapiens, UniProt P32245); assay: inhibitors of MC4R cAMP signaling – cell-based, TR-FRET, biased antagonists, dose response (AID 602298); type: functional;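 also: antagonist potency against agonist-stimulated cAMP production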
Melanocortin receptor 4, sequence (P32245 whole entry): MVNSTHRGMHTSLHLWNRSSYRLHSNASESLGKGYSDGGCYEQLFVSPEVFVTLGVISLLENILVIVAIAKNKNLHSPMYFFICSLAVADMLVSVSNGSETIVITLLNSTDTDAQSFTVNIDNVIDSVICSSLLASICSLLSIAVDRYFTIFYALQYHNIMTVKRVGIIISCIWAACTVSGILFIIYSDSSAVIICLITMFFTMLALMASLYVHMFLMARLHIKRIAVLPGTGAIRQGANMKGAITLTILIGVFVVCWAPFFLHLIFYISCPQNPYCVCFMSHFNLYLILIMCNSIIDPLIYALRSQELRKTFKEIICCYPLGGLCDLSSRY

[2] = target: Voltage-gated inwardly rectifying potassium channel KCNH2 (Homo sapiens, UniProt Q12809); details: Potency;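 also: confirmatory quantitative high-throughput screen measuring inhibition of hERG channel activity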
Voltage-gated inwardly rectifying potassium channel KCNH2, sequence (Q12809 whole entry): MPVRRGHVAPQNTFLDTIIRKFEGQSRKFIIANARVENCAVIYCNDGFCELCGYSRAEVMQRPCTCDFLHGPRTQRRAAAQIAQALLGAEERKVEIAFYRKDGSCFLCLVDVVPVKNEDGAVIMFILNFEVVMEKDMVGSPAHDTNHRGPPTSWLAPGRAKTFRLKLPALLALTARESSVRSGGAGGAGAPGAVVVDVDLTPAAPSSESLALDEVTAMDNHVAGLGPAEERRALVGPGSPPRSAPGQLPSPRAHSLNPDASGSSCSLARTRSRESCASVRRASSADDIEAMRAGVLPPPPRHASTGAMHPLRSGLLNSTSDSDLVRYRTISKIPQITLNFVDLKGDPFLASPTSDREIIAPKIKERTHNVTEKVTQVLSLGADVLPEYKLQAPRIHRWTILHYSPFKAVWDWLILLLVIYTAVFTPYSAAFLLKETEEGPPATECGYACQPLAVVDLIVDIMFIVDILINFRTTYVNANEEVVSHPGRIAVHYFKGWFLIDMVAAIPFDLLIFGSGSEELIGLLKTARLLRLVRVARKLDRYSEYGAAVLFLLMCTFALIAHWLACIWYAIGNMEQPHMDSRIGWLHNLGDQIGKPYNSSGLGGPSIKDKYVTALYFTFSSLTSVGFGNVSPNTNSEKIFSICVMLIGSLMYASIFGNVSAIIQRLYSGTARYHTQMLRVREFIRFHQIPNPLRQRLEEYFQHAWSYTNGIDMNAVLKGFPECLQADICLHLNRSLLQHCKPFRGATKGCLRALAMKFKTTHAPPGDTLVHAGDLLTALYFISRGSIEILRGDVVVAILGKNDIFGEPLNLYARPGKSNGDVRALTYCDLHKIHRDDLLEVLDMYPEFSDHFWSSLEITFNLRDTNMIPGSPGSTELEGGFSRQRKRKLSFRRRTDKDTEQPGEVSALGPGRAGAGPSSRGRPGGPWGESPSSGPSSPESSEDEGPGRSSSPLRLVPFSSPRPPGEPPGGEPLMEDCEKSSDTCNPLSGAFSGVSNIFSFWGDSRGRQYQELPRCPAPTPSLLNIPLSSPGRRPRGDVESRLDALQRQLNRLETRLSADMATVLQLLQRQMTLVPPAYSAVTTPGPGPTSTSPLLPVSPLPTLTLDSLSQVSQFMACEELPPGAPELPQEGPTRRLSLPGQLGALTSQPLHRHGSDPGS

[3] = THP-1 cell cytotoxicity, dose response, cytotoxicity control for non-replicating M. tuberculosis project (AID 489025); type: functional
[4] = target: G-protein coupled receptor 55 (Homo sapiens, UniProt Q9Y2T6); assay: inhibition of LPI-stimulated GPR55 beta-arrestin translocation – imaging, U2OS, beta-arrestin-GFP, LPI agonist, primary screen (AID 2013); type: functional;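 also: antagonist potency measured as reduced agonist-driven arrestin aggregation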
G-protein coupled receptor 55, sequence (Q9Y2T6 whole entry): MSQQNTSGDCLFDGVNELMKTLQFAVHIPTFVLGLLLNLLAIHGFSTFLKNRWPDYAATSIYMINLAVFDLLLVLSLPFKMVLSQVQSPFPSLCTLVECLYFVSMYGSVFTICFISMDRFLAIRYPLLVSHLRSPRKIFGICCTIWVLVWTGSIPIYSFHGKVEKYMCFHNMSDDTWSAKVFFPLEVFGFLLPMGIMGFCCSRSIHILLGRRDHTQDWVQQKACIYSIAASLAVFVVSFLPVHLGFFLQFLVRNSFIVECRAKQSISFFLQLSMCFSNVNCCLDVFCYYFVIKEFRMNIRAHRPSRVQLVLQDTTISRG

cells [5] = type: functional, cell-based
cells [6] = type: functional, cell-based; remark: listed apart in the source
Vero = assay: cells; type: functional; details: Chlorocebus sabaeus
[7] = NIH3T3 cell viability loss – ATP luminescence, mouse fibroblasts, counter-screen, dose response (AID 2010); type: functional, cell-based;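 also: cells exposed to compound for about 90 hours before reading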
[8] = Luminescence Cell-Based Dose Retest to Confirm Inhibitors of Cancer Stem Cells. [Related pubchem assays (depositor defined):AID2717, AID2721]; type: functional; details: Homo sapiens
[9] = Trypanosoma cruzi growth suppression in host cells – NIH3T3 host cells, beta-gal luminescence, confirmation (AID 2044); type: functional, cell-based;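 also: intracellular parasites grown in NIH/3T3 mouse fibroblasts as host cells; luminescent beta-galactosidase reporter signal from transgenic T. cruzi replicating inside host cells; inhibitors lower the luminescence signal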
[10] = fluconazole-exposed Candida albicans growth modulators – fluorescence, retest, confirmation (AID 2467); type: functional, cell-based
[11] = NIH-3T3 fibroblast cytotoxicity, dose response, cytotoxicity control, cell-based, fluorescence, Alamar Blue, secondary assay (AID 2327); type: functional;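 also: NIH-3T3 mouse fibroblasts cultured with fluconazole at 8 µg/mL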
[12] = target: Glucose-6-phosphate 1-dehydrogenase (Homo sapiens, UniProt P11413); assay: inhibition of Homo sapiens G6PD, dose series – biochemical, fluorescence, selectivity assay for P. falciparum G6PD inhibitor project, dose response (AID 504792); type: functional
Glucose-6-phosphate 1-dehydrogenase, sequence (P11413 whole entry): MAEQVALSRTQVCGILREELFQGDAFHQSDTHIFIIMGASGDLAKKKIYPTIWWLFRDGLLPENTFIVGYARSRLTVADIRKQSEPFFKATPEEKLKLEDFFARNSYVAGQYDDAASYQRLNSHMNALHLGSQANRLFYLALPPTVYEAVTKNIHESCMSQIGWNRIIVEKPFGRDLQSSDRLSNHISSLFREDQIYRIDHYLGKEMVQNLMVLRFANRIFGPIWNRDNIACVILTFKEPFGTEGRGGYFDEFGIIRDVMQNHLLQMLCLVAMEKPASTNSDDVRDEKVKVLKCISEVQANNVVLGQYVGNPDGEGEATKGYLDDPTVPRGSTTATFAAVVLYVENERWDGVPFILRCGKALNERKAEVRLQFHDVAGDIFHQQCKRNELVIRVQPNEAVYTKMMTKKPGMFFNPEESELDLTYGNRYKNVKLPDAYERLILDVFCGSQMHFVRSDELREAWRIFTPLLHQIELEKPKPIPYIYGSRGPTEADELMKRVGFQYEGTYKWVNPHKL

[13] = target: Beta-2 adrenergic receptor (Homo sapiens, UniProt P07550); assay: ADRB2 activation measured by internalization – cell-based, FAP fluorogen, flow cytometry, cherry pick 1, dose response (AID 588763); type: functional
Beta-2 adrenergic receptor, sequence (P07550 whole entry): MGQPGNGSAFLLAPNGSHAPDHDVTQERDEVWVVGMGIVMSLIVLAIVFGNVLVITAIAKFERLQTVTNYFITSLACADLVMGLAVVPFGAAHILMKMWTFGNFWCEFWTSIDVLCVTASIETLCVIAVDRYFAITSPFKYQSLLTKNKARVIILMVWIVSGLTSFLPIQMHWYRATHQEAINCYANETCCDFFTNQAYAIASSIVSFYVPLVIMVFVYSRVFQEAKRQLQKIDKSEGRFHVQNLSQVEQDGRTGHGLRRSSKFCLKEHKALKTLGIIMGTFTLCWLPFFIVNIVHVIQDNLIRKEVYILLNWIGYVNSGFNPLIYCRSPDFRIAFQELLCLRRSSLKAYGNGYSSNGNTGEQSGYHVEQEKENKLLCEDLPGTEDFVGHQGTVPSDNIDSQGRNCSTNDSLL

[14] = Luminescence Cell-Based Dose Response HTS to Identify Activators of Luciferase Translation or Activity in H4 […] Cells. [Related pubchem assays: 1829 (Project Summary), 1814 (Primary HTS)]; type: functional
[15] = Luminescence Cell-Based Dose Confirmation HTS to Identify Activators of 5'UTR Stem-Loop Driven Alpha-Synuclein mRNA Translation in H4 Neuroglioblastoma Cells. [Related pubchem assays: 1829 (Project Summary), 1814 (Primary HTS)]; type: functional
H4 = assay: Luminescence Cell-Based Dose Response HTS to Identify Activators of 5'UTR Stem-Loop Driven Prion Protein mRNA Translation in H4 Neuroglioblastoma Cells. [Related pubchem assays: 1829 (Project Summary), 1814 (Primary HTS)]; type: functional; details: Homo sapiens
[16] = target: T2, Type-1 angiotensin II receptor (Homo sapiens, UniProt P30556); assay: antagonism of angiotensin II type 1 receptor – cell-based, uHTS hits, selectivity assay for APJ receptor antagonist project, dose response (AID 463214); type: functional;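 also: antagonist potency against angiotensin II stimulated AT1 response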
T2 sequence (P30556 whole entry): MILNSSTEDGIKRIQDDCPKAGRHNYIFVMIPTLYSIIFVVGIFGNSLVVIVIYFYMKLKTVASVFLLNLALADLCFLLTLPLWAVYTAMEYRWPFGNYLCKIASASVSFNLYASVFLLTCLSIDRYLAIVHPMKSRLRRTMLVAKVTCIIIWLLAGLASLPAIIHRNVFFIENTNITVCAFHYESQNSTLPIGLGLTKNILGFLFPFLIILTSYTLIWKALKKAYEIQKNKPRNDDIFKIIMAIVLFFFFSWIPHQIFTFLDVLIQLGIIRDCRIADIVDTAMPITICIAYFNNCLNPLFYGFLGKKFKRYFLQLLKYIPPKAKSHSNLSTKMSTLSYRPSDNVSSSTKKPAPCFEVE

Beta-galactosidase = Beta-galactosidase (Escherichia coli, UniProt Q8VNN2); assay: PubChem AID 485352; type: functional
Beta-galactosidase, sequence (Q8VNN2 whole entry): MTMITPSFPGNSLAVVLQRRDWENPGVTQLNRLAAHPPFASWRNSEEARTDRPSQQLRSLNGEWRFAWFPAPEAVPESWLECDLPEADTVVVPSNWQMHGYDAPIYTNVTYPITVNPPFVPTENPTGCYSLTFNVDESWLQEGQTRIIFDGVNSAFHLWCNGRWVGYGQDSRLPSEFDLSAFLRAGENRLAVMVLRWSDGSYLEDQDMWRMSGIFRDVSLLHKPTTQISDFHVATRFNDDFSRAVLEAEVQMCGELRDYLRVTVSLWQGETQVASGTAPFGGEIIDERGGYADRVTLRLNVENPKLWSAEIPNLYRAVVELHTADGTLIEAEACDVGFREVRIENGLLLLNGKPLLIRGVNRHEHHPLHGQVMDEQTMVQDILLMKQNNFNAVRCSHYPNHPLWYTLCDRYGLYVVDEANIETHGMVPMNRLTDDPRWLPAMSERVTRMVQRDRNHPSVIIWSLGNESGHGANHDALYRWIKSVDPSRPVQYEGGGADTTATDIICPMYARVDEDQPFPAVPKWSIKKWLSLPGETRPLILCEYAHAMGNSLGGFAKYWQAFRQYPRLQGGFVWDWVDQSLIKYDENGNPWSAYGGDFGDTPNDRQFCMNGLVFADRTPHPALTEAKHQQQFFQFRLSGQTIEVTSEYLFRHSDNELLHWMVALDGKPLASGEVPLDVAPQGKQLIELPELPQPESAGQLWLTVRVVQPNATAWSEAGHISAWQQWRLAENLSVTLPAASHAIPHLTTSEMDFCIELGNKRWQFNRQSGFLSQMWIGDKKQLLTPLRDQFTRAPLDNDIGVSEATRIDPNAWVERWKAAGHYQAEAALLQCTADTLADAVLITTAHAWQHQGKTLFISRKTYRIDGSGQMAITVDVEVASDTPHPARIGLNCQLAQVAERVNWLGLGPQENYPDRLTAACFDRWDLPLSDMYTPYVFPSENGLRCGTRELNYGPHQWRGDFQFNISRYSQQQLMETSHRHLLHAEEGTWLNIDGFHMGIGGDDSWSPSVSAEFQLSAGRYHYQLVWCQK

[17] = target: T3, High affinity choline transporter 1 (Homo sapiens, UniProt Q9GZV3); assay: human choline transporter blockers, potency – cell-based, 5-point CRC, membrane potential dye, dose response (AID 504840); type: functional
T3 sequence (Q9GZV3 whole entry): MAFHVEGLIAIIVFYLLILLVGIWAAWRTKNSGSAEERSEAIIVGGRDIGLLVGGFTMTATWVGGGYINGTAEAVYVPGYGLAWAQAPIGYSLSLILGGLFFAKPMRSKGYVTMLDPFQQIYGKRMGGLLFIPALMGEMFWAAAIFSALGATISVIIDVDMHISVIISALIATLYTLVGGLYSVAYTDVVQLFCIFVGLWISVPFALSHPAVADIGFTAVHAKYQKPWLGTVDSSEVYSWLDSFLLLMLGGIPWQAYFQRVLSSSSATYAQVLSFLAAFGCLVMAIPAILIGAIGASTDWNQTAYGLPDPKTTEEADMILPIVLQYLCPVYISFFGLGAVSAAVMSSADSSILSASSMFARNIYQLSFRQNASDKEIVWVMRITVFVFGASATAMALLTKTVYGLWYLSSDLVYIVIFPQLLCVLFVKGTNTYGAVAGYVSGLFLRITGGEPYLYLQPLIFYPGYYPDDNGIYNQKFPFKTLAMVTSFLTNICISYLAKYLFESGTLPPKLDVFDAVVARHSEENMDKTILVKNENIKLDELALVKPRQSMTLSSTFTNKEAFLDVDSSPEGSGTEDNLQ

H9c2 = assay: cells; type: functional, cell-based; details: Rattus norvegicus, H9c2, Myocardium;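 also: confirmatory concentration-response retest of ultra-high-throughput screening hits for modulation of myocardial damage; cell death induced by hydrogen peroxide oxidative stress; compound pretreatment for 60 min then peroxide exposure for 2 h; potency is for protecting the cells against peroxide damage rather than for killing them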

Phospholipase A2, sequence (P04054 whole entry): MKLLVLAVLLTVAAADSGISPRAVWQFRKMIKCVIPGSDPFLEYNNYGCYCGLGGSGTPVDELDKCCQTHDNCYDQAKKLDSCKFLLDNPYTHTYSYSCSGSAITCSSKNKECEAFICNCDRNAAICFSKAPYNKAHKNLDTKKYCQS

With `Nc1c(N2CCN(c3ccccc3)CC2)c2ccccc2oc1=O` the IC50 (Phospholipase A2) was 12.9 µM (active) and the IC50 (Cysteine protease ATG4B) was 20.4 µM (inactive).

For `COc1ccc(CC(=O)Oc2ccc(F)c(F)c2)cc1S(=O)(=O)N1CCOCC1`, the IC50 [1] was > 64.6 µM (inactive) and the IC50 (Melanocortin receptor 4) was > 64.6 µM (inactive).

For `O=[N+]([O-])c1ccccc1-c1ccccc1`, the AC50 [2] was 39.8 µM (inconclusive).

For `c1ccc(Cc2nnc(-c3ccccc3)o2)cc1`, the CC50 [3] was > 40 µM (active), the IC50 [4] was 3.3 µM (active) and the EC50 (cells [5]) was > 350 µM (not active). The EC50 (cells [6]) was 56.3 µM (active) and the CC50 (Vero) was 16.3 µM (active).

With `CN(C)CCNC(=O)COc1ccc(C23CC4CC(CC(C4)C2)C3)cc1` the EC50 [7] was > 60 µM (inconclusive), the AC50 [8] was 4.95 µM (active) and the EC50 [9] was 1.83 µM (active). For the same compound, the CC50 (Vero) was 18.5 µM (active).

In the case of `CCc1cc(-c2[nH]nc(C)c2-c2ccccc2Cl)c(O)cc1OC`, the AC50 [8] is reported as 4.42 µM (active), the EC50 [10] is reported as > 38 µM (not active) and the EC50 [11] is reported as 6.06 µM (inconclusive). For the same compound, the IC50 [12] was > 80 µM (inactive).

In the case of `CCCCC(=O)Nc1ccc(C(=O)N(CC)c2ccccc2C)cc1`, the EC50 [13] is reported as 17.5 µM (inactive).

With `O=C(/C=C/c1cccc(O)c1)c1ccc(N2CCOCC2)cc1` the EC50 [14] was 12.3 µM (active), the EC50 [15] was > 120 µM (not active) and the EC50 (H4) was > 120 µM (not active). For the same compound, the CC50 (Vero) was 12.7 µM (active).

In the case of `CCN(CC)c1nc(C)c(C(S)=Nc2cc([N+](=O)[O-])ccc2Cl)s1`, the IC50 [16] is reported as > 40 µM (not active) and the EC50 (Beta-galactosidase) is reported as 24.8 µM (active).

With `CC1=C(C#N)C(c2cn(-c3ccccc3)nc2-c2cccs2)C(C#N)=C(C)N1` the EC50 [13] was 0.327 µM (inactive).

With `Cc1cccc(/N=C/c2cc(Br)cc(Cl)c2O)c1` the IC50 (Phospholipase A2) was 12.1 µM (active), the IC50 [17] was 13.3 µM (active) and the IC50 (Cysteine protease ATG4B) was 8.52 µM (active). The IC50 (H9c2) was > 79 µM (inactive).

With `CNCC(O)c1ccc(OC(=O)C(C)(C)C)c(OC(=O)C(C)(C)C)c1` (stereo unspecified) [DIPIVEFRIN HYDROCHLORIDE] the EC50 [13] was 7.13 µM (active).
